The structures appear in SMILES notation. Values after ≈ are worked out from the molar mass of the structure shown.

For orientation: fold induction means the signal under treatment as a multiple of the control signal. The MIC is the least concentration at which growth counts as inhibited. High values mean a less susceptible organism, low ones a more susceptible organism. In general, IC50 refers to the concentration needed to halve the response being measured. Low values mean inhibition by little substance, high ones a need for much substance.

The subject of data set [1] is Salmonella typhimurium. Nature of the data set: Mutagenicity in Salmonella typhimurium TA98 at 0.625 mg/ml after 48 hrs by Ames MPF assay in absence of Sprague-Dawley rat liver S9 fraction. Format: toxicity, organism-based. The note with it: salmonella enterica subsp. enterica serovar typhimurium.
The subject of data set [2] is Salmonella typhimurium. Nature of the data set: Genotoxicity in Salmonella typhimurium TA1535/pSK1002 assessed as growth factor at 1.25 mg/ml after 2 hrs by umuC assay in absence of Sprague-Dawley rat liver S9 fraction. Type of data set: toxicity, organism-based. The settings on record: salmonella enterica subsp. enterica serovar typhimurium.
Data set [3] is described as follows: Genotoxicity in Salmonella typhimurium TA1535/pSK1002 assessed as induction ratio at 5 mg/ml after 2 hrs by umuC assay in absence of Sprague-Dawley rat liver S9 fraction. The settings on record: salmonella enterica subsp. enterica serovar typhimurium. Format: toxicity, organism-based.
For data set [4], the system named is Salmonella typhimurium. Nature of the data set: Mutagenicity in Salmonella typhimurium TA100 at 0.156 mg/ml after 48 hrs by Ames MPF assay in presence of Sprague-Dawley rat liver S9 fraction. The settings on record: salmonella enterica subsp. enterica serovar typhimurium, s9, 48 h. Format: toxicity, organism-based.
Data set [5] is described as follows: Genotoxicity in Salmonella typhimurium TA1535/pSK1002 assessed as induction ratio at 0.625 mg/ml after 2 hrs by umuC assay in presence of Sprague-Dawley rat liver S9 fraction. Format: toxicity, organism-based. The note with it: salmonella enterica subsp. enterica serovar typhimurium.
In data set [6] the test system is Salmonella typhimurium. Nature of the data set: Genotoxicity in Salmonella typhimurium TA1535/pSK1002 assessed as growth factor at 0.156 mg/ml after 2 hrs by umuC assay in absence of Sprague-Dawley rat liver S9 fraction. Type of data set: toxicity, organism-based. The settings on record: salmonella enterica subsp. enterica serovar typhimurium.
Data set [7] relates to Salmonella typhimurium. Nature of the data set: Mutagenicity in Salmonella typhimurium TA98 at 0.156 mg/ml after 48 hrs by Ames MPF assay in presence of Sprague-Dawley rat liver S9 fraction. Type of data set: toxicity, organism-based. The settings on record: salmonella enterica subsp. enterica serovar typhimurium, s9, 48 h.
In data set [8] the test system is Salmonella typhimurium. Nature of the data set: Mutagenicity in Salmonella typhimurium TA98 at 2.5 mg/ml after 48 hrs by Ames MPF assay in absence of Sprague-Dawley rat liver S9 fraction. Type of data set: toxicity, organism-based. The note with it: salmonella enterica subsp. enterica serovar typhimurium.
The next data set has as its system [Candida] zeylanoides. Nature of the data set: Antifungal activity against Candida zeylanoides NRLL Y-1774 after 48 hrs by broth microdilution method. The note with it: Dujonia zeylanoides, NRLL Y-1774, 48 h. Format: functional.
The subject of data set [9] is Salmonella typhimurium. Nature of the data set: Genotoxicity in Salmonella typhimurium TA1535/pSK1002 assessed as growth factor at 0.156 mg/ml after 2 hrs by umuC assay in presence of Sprague-Dawley rat liver S9 fraction. Type of data set: toxicity, organism-based. The settings on record: salmonella enterica subsp. enterica serovar typhimurium, s9, 2 h.
The nature of data set [10]: Genotoxicity in Salmonella typhimurium TA1535/pSK1002 assessed as induction ratio at 0.156 mg/ml after 2 hrs by umuC assay in presence of Sprague-Dawley rat liver S9 fraction. Type of data set: toxicity, organism-based. The note with it: salmonella enterica subsp. enterica serovar typhimurium.
Data set [11] is described as follows: Genotoxicity in Salmonella typhimurium TA1535/pSK1002 assessed as induction ratio at 0.156 mg/ml after 2 hrs by umuC assay in absence of Sprague-Dawley rat liver S9 fraction. Type of data set: toxicity, organism-based. The settings on record: salmonella enterica subsp. enterica serovar typhimurium.
Another data set concerns Nakaseomyces glabratus. Nature of the data set: Antifungal activity against clinical isolate Candida glabrata after 48 hrs by broth microdilution method. Type of data set: functional. A general note: In broth dilution the organism is exposed to a series of concentrations in liquid medium.
Data set [12] can be described thus: Cytotoxicity against mouse NIH/3T3 cells after 24 hrs by XTT assay. Type of data set: cell-based. The settings on record: NIH3T3, 24 h.
Data set [13] concerns Salmonella typhimurium. Nature of the data set: Genotoxicity in Salmonella typhimurium TA1535/pSK1002 assessed as growth factor at 2.5 mg/ml after 2 hrs by umuC assay in absence of Sprague-Dawley rat liver S9 fraction. Type of data set: toxicity, organism-based. The settings on record: salmonella enterica subsp. enterica serovar typhimurium.
A short description of data set [14]: Genotoxicity in Salmonella typhimurium TA1535/pSK1002 assessed as induction ratio at 5 mg/ml after 2 hrs by umuC assay in presence of Sprague-Dawley rat liver S9 fraction. Type of data set: toxicity, organism-based. The note with it: salmonella enterica subsp. enterica serovar typhimurium.
Data set [15] can be described thus: Genotoxicity in Salmonella typhimurium TA1535/pSK1002 assessed as induction ratio at 0.3125 mg/ml after 2 hrs by umuC assay in absence of Sprague-Dawley rat liver S9 fraction. Type of data set: toxicity, organism-based. The settings on record: salmonella enterica subsp. enterica serovar typhimurium.
A short description of data set [16]: Genotoxicity in Salmonella typhimurium TA1535/pSK1002 assessed as induction ratio at 0.3125 mg/ml after 2 hrs by umuC assay in presence of Sprague-Dawley rat liver S9 fraction. Type of data set: toxicity, organism-based. The settings on record: salmonella enterica subsp. enterica serovar typhimurium.
The test system of the next data set is Aspergillus niger. Nature of the data set: Antifungal activity against Aspergillus niger ATCC-1094 after 72 hrs by broth microdilution method. Type of data set: functional. The settings on record: ATCC-1094, 72 h.
The next data set has as its system Pichia kudriavzevii. Nature of the data set: Antifungal activity against Candida krusei NRLL Y-7179 after 48 hrs by broth microdilution method. Type of data set: functional. The settings on record: NRLL Y-7179, 48 h.
The test system of a further data set is Candida albicans. Nature of the data set: Antifungal activity against Candida albicans ATCC-90028 after 48 hrs by broth microdilution method. Type of data set: functional. The settings on record: ATCC-90028, 48 h.
Data set [17] deals with Salmonella typhimurium. Nature of the data set: Genotoxicity in Salmonella typhimurium TA1535/pSK1002 assessed as growth factor at 0.625 mg/ml after 2 hrs by umuC assay in absence of Sprague-Dawley rat liver S9 fraction. The note with it: salmonella enterica subsp. enterica serovar typhimurium. Format: toxicity, organism-based.
In data set [18] the test system is Salmonella typhimurium. Nature of the data set: Mutagenicity in Salmonella typhimurium TA98 at 1.25 mg/ml after 48 hrs by Ames MPF assay in presence of Sprague-Dawley rat liver S9 fraction. Format: toxicity, organism-based. The settings on record: salmonella enterica subsp. enterica serovar typhimurium, s9, 48 h. In general terms: The Ames test detects mutagens through reverse mutation in bacteria.

Data set [19] has as its system Salmonella typhimurium. Nature of the data set: Mutagenicity in Salmonella typhimurium TA100 at 2.5 mg/ml after 48 hrs by Ames MPF assay in absence of Sprague-Dawley rat liver S9 fraction. Format: toxicity, organism-based. The settings on record: salmonella enterica subsp. enterica serovar typhimurium.

As for `Fc1ccc(F)c(/C=N/NC(=S)Nc2cccc3ccccc23)c1`, the “fold change (FC)” value worked out at 0 in the data set on Salmonella typhimurium [1]; 0.48 in the data set with Salmonella typhimurium [4]; 0.65 in the data set with Salmonella typhimurium [7]; 0 in the data set with Salmonella typhimurium [8]; 0.65 with Salmonella typhimurium [18]; 0.48 with Salmonella typhimurium [19]. For the same compound, the Activity came out at 0.115 in the data set with Salmonella typhimurium [2]; 0.142 in the data set with Salmonella typhimurium [6]; 0.235 in the data set with Salmonella typhimurium [9]; 0.137 in the data set with Salmonella typhimurium [13]; 0.14 in the data set on Salmonella typhimurium [17]. Moreover, the fold induction at 2 h, 5 mg/ml turned out to be 1.63 in data set [3] and 1.42 in [14]. Also, the fold induction at 2 h, 0.625 mg/ml in data set [5] stood at 5.34. The minimum inhibitory concentration (MIC) in data set [Candida] zeylanoides is 250 µg/mL (≈ 732 µM); in the data set with Nakaseomyces glabratus it was 125 µg/mL (≈ 366 µM); against Aspergillus niger, 250 µg/mL (≈ 732 µM); against Pichia kudriavzevii it was 250 µg/mL (≈ 732 µM); against Candida albicans, 250 µg/mL (≈ 732 µM). Further, the fold induction at 2 h, 0.156 mg/ml in data set [10] came to 1.5; in data set [11], 1.79. The compound also displayed an IC50 in data set [12] greater than 500 µg/mL. Moreover, the fold induction at 2 h, 0.3125 mg/ml stood at 1.3 in data set [15] and 1.4 in data set [16].

For `Fc1cccc(/C=N/NC(=S)Nc2cccc3ccccc23)c1F`, the “fold change (FC)” value in the data set with Salmonella typhimurium [1] stood at 0; with Salmonella typhimurium [4] it was 1.02; in the data set on Salmonella typhimurium [7], 0.94; in the data set on Salmonella typhimurium [8], 0; in the data set on Salmonella typhimurium [18], 0.84; with Salmonella typhimurium [19] it was 0.18. The Activity is on record as 0.131 in the data set with Salmonella typhimurium [2]; 0.14 in the data set on Salmonella typhimurium [6]; 0.274 in the data set on Salmonella typhimurium [9]; 0.311 with Salmonella typhimurium [13]; 0.137 with Salmonella typhimurium [17]. Also, the fold induction at 2 h, 5 mg/ml was found to be 1.55 in data set [3] and 1.46 in [14]. Besides, the fold induction at 2 h, 0.625 mg/ml in data set [5] is 1.39. For the same compound, the MIC amounted to 250 µg/mL (≈ 732 µM) in data set [Candida] zeylanoides; 125 µg/mL (≈ 366 µM) in the data set with Nakaseomyces glabratus; 250 µg/mL (≈ 732 µM) against Aspergillus niger; 250 µg/mL (≈ 732 µM) in the data set on Pichia kudriavzevii; 250 µg/mL (≈ 732 µM) with Candida albicans. Moreover, the fold induction at 2 h, 0.156 mg/ml is 5.34 in data set [10] and 6 in [11]. The IC50 in data set [12] is greater than 500 µg/mL. Also, the fold induction at 2 h, 0.3125 mg/ml in data set [15] came to 1.79; in data set [16], 2.81.

These data come from ChEMBL document CHEMBL3758081, “Synthesis and biological evaluation of new naphthalene substituted thiosemicarbazone derivatives as potent antifungal and anticancer agents” (Eur J Med Chem, 2016).
